Test results: US20220089602A1, “COMPOUNDS THAT INDUCE FERROPTIC CELL DEATH” (The Board of Trustees of the University of Illinois, priority 2019, published 2022)

Key:
4T1 cells = assay: Cellular lipid ROS production (C11-BODIPY); assay type: cell-based, murine; details: 10 μM
Description: (§1) ES-2, HCT 116, and 4T1 cells (1×10^5 cells/mL) were plated in 12-well plates. Cells were pre-treated for 2 hr with 100 μM deferoxamine followed by treatment with DMSO, 10 μM ferroptocide, 10 μM RSL3, or 100 μM TBHP for 1 hr, 1.5 hr and 2 hr respectively. Cells were washed with HBSS and incubated in the dark for 20 min with 5 μM C11-BODIPY probe. Cells were then washed 2× with HBSS and harvested at 1000×g, 3 min. After resuspension in 500 μl HBSS buffer, samples were analyzed with flow cytometry to record ten thousand events per sample in FL1 channel in BD LSR II Flow Cytometer (BD Bioscience). FCS express V6 De Novo software was used to generate histograms.

HCT 116 cells [1] = assay: Cellular lipid ROS production (C11-BODIPY); assay type: cell-based; details: 10 μM
Description: as §1

ES-2 cells [2] = assay: Cellular lipid ROS production (C11-BODIPY); assay type: cell-based; details: 10 μM
Description: as §1

ES-2 cell line = assay: 72 hr cell viability assay (Alamar Blue), dose response IC50; assay type: cell-based; details: Homo sapiens; 72 hr, ES-2 cell line, Alamar Blue fluorescence, mean ± s.e.m., n ≥ 3
Description: 40 μL of media was added to each well of a 384-well tissue culture-treated plate. 3×100 nL of compound in DMSO was then pin-transferred from compound storage plates (2 mM stocks) into media-containing wells using the Platemate Plus at the UIUC High Throughput Screening Facility. A 100,000 cells/mL suspension of ES-2 cells was prepared, and 10 μL was added to each well for a final concentration of 1000 cells/well. Doxorubicin (100 μM final) was used as a positive control. Plates were sealed with gas-permeable seals and incubated at 37° C. for 72 h. After incubation, 5 μL of Alamar blue (440 μM resazurin in sterile PBS) was added and allowed to incubate for 3-4 h, until visible color change occurred. Fluorescence was measured in a Molecular Devices SpectraMax 3 (excitation=555 nm, emission=585 nm, emission cutoff=570 nm).
To a 384-well plate, 40 μL of 1.25× compound dilution or 1.25% DMSO-containing media was added (final volume of 1% DMSO). Concentrations of compounds tested were 100 μM to 100 nM. On each plate at least 3 technical replicates per compound were performed. Next, 10 μL of a 100,000 cells/mL suspension was added to each well, yielding a final concentration of 1,000 cells/well. To three wells in column 2 was added 1 μL of 10 mM doxorubicin (final concentration of 200 μM) as positive control of cell death. Plates were sealed with gas-permeable seals and incubated at 37° C. for 72 h. At that time, 5 μL of Alamar blue (440 μM resazurin in sterile PBS) was added and plates were incubated for 3-4 hours. Fluorescence was read on a Molecular Devices SpectraMax 3 (excitation=555 nm, emission=585 nm, emission cutoff=570 nm). Wells were normalized to the average of untreated wells (0% cell death). The data were plotted as compound concentration versus percent dead cells and fitted to a logistic-dose response curve using OriginPro 2015 (OriginLab, Northampton, Mass.). The data were generated in triplicate, and IC50 values are reported as the average of three separate experiments along with standard error of the mean.

HCT 116 cells [3] = assay: Cellular ROS production (carboxy-H2DCFDA); assay type: cell-based; details: 1.5 hr
Description: (§2) ES-2 and HCT 116 cells (3×10^5 cells/mL) were plated in 6-well plates. Cells were treated with DMSO, ferroptocide at the indicated concentrations, Etoposide (100 μM), TBHP (100 μM) for 1 hr and 1.5 hr respectively. Cells were washed with HBSS and incubated in the dark for 25 min with 25 μM carboxy-H2DCFDA probe. Cells were then washed 3× with HBSS and harvested at 1000×g, 3 min. After resuspension in 500 μl HBSS buffer, samples were subjected to flow cytometry to record ten thousand events per sample in FL1 channel in BD LSR II Flow Cytometer (BD Bioscience). FCS express V6 De Novo software was used to generate the histograms.

ES-2 cells [4] = assay: Cellular ROS production (carboxy-H2DCFDA); assay type: cell-based; details: 1 hr
Description: as §2

HT-29 cells = assay: RNA sequencing of treated cells; assay type: cell-based; details: 10 μM, 6 hr
Description: Total RNA was extracted by RNeasy Kit (QIAGEN) and digested with DNase (QIAGEN) from n=2 samples per condition (DMSO, 10 μM ferroptocide cells treated for 6 hr). RNA quality was assessed with a 2100 Agilent Bioanalyzer prior to library preparation. The RNAseq libraries were prepared using the TruSeq Stranded mRNAseq Sample Prep kit (version 1) following manufacturer's instruction (Illumina). Libraries were then quantified, pooled, and sequenced by single-end 150 base pairs using the Illumina HiSeq 4000 platform at the Roy J. Carver Biotechnology center. FASTQ files were generated and demultiplexed with the bcl2FASTQ v2.17.1.14 Conversion Software (Illumina). Libraries were sequenced at an average depth of 40-50 million reads per sample. Trimmomatic (v0.36) was utilized to remove sequencing adapters, low-quality bases (PHRED score <28), and reads less than 30 bases in length. Pseudo-alignment and transcript-level counting to NCBI's GRCh38.p11 transcriptome was then performed with Salmon (v 0.8.2) in quasi-mapping mode while correcting for sequence-specific and GC biases, and generating 30 bootstraps. Counts summarized to the gene level (NCBI annotation release 108) using tximport (v 1.6.0) and the “lengthScaledTPM” method. The counts were normalized using the TMM method from edgeR (v 3.20.5) and then transformed to log 2 counts per million (log CPM) with prior.count=3. Genes without at least log CPM>log 2(0.5) in at least 3 samples were filtered out, leaving 16,743 genes for differential expression testing. TMM normalization was re-done after filtering and then limma's (v 3.34.5) voom method was used to find differentially expressed genes for the pairwise comparisons of treatment vs. control in A549, and treatment vs. control in HT29 (batch 2 and 3, 8 samples total, 6 hr), and the interaction between treatment and cell line. P values were adjusted for multiple hypothesis testing with the Benjamini-Hochberg method to generate false discovery rates. Gene set enrichment analysis was done using ESGEA (v 1.6.1) for the Gene Ontology BP, CC and MF gene sets, KEGG pathway gene sets, and Pathway gene sets. The RNA sequencing data have been deposited to the GEO repository with the accession number GSE126868.

Structure (SMILES): C[C@@H]1CC[C@@]23C[C@H](O)C(=O)[C@@]2(O)[C@]1(C)[C@H](OC(=O)CCl)C[C@@H](C1=CCn2c(=O)n(-c4ccccc4)c(=O)n2C1)[C@@H]3C [Compound P18, ferroptocide]
- lipid ROS (4T1 cells): induces lipid ROS
- lipid ROS (HCT 116 cells [1]): induces lipid ROS
- lipid ROS (ES-2 cells [2]): induces lipid ROS
- IC50 (ES-2 cell line): 1.6 µM
- ROS production (HCT 116 cells [3]): Dose-dependent ROS production
- ROS production (ES-2 cells [4]): Dose-dependent ROS production
- genes involved in ferroptosis modulated (HT-29 cells; FDR ≤0.05): 35/40
- ATF3 upregulation (RNA-seq) (HT-29 cells; HT-29): 11.5 fold
- CHAC1 upregulation (RNA-seq) (HT-29 cells; HT-29): 9.8 fold
- DDIT3 upregulation (RNA-seq) (HT-29 cells; HT-29): 22.5 fold
- DDIT4 upregulation (RNA-seq) (HT-29 cells; HT-29): 11.3 fold
- GCLC upregulation (RNA-seq) (HT-29 cells; HT-29): 3.5 fold
- GCLM upregulation (RNA-seq) (HT-29 cells; HT-29): 4.9 fold
- SLC7A11 upregulation (RNA-seq) (HT-29 cells; HT-29): 8.1 fold
